According to US7563789B2, “1-Adamantyl chalcones for the treatment of proliferative disorders” (priority 2002, dated 2009):
Read-outs that look alike come from different tables or passages of the source.

Key:
[1] = tested on: MCF-7 (ER-positive) human breast cancer cell line; assay: cells
Protocol: 1. A dose response curve for compounds, series I, II, III, IV, over a concentration range of 1 mM to 1 nM was prepared in order to detect the doses where possible biological activity might exist. Biological activity was determined by relative LC50 values of these agents.
(§1) 2. The compounds in series I, II, III, and IV were examined against two different types of breast cancer cell lines which included estrogen receptor positive (MCF-7) and estrogen receptor negative (MDA-MB435) cell lines.
(§2) 3. Toxicity of the compounds for normal breast epithelial cells were examined by comparing LC50 values in normal breast epithelial cell line (MCF-10) against LC50 values in cancer cell lines. LC50 is the concentration that is lethal to 50 percent of the cells. LC50 values were estimated from a dose response graph.
(§3) Two human breast cancers cell lines (MCF-7 and MDA-MB435) and a normal breast epithelial cell line (MCF-10) were obtained from ATCC (American Type Culture Collection) to test against the series of compounds and the data were examined for the compounds' relative antiproliferation profiles. All of these cell lines were derived from epithelial tissue. These cell lines were selected because they allowed our laboratory to investigate the effects of the compounds in: 1) breast neoplasms whose growth is stimulated by the presence of estrogen, MCF-7 (ER-positive); 2) Breast neoplasms whose growth is not stimulated by estrogen MDA-MB435 (ER-negative); and 3) A non-cancer cell line (MCF-10) to compare relative toxicities of the compounds.

[2] = tested on: MDA-MB435 (ER-negative) human breast cancer cell line; assay: Dose response / cell viability (LC50) in MDA-MB435 breast cancer cells
Protocol: 1. […] Biological activity was determined by relative LC50 values of these agents.
as §1, §2, §3

[3] = tested on: normal breast epithelial cell line MCF-10; assay: Toxicity for normal breast epithelial cells; assay type: cell-based; conditions: MCF-10 cells; highest concentration tested (1 mM); average values
Protocol: 3. […] LC50 values were estimated from a dose response graph.
The relative toxicity of the synthesized compounds (47a-e) against normal breast cells was studied by exposing normal breast epithelial cell line MCF-10 to our synthesized compounds in concentration ranges from 1 nM to 1 mM. These cells were likewise exposed to equivalent concentrations of Tamoxifen, Genestein, and Doxyrubicin. […] At concentrations lower than 10^−7 M, these compounds appeared to enhance the viability of cells.

[4] = tested on: EGF stimulated growth of MCF-7 cells; assay type: cell-based, human
Protocol: (§4) The possible mechanism of action of these compounds was explored by examining the ability of these agents to reverse growth factor stimulated proliferation. The ability of these compounds to attenuate EGF and TGF stimulated growth was tested.
(§5) Both MCF-7 and MDA-MB435 cells contain EGF-R and TGF-R. In an effort to examine the role of EGF-R and TGF-R in the proliferation of MCF-7 and MDA-MB435, these cells were stimulated to growth stimulatory at 50 percent (GS50) values.
(§6) In all cases 10 ml of growth factor was administered at a concentration of 1 ng/ml.

[5] = tested on: TGF-α stimulated growth of MCF-7 cells; assay: Reversal of TGF-α stimulated growth of MCF-7 cells; assay type: cell-based
Protocol: as §4, §5, §6

[6] = tested on: EGF stimulated growth of MDA-MB435 cells; assay: Reversal of EGF stimulated growth of MDA-MB435 cells; assay type: cell-based; conditions: EGF (1 ng/ml) serum and non-serum stimulated growth of MDA-MB435 cells; 10^−9 to 10^−3 M
Protocol: as §4, §5, §6

[7] = tested on: TGF stimulated growth of MDA-MB 435 cells
Protocol: 4. The possible mechanism of action of these compounds was explored by examining the ability of these agents to reverse growth factor stimulated proliferation. The ability of these compounds to attenuate EGF and TGF stimulated growth was tested.
as §5, §6

[8] = tested on: Normal human mammary epithelial (HME) cells stimulated by EGF; conditions: read-out: concentration at which cell growth is inhibited by 50% (IC50); cited from earlier work
[9] = Homo sapiens, MCF7, read-out: LC50

CC(C)c1ccc(/C=C/C(=O)C23CC4CC(CC(C4)C2)C3)cc1 [Compound 43f]
decrease of cell viability [1]: 20%
effect on cell viability (in words) ([2]; MDA-MB435 cells): altered cell viability only at much higher concentrations than required for MCF-7 cells

O=C(/C=C/c1ccccn1)C12CC3CC(CC(C3)C1)C2 [Compound 47a]
% cell viability [3]: 103%
IC50 ([4]; EGF-non serum stimulated growth of MCF-7 cells, read-out: IC50, reversal of stimulated growth back to control values): 50 µM
concentration reversing stimulated growth back to control values ([4]; EGF-serum stimulated growth of MCF-7 cells): 10 µM
CC50 ([5]; MCF-7, TGF 1 ng/ml, non-serum stimulated, reversal value, read-out: LC50 Data for Administered Drug, Non-Serum Stimulated): 50 µM
reversal of stimulated growth (in words) ([5]; TGF-α serum and non-serum stimulated growth of MCF-7 cells, 10^−9 to 10^−3 M): neither TGF-α serum stimulated nor non-serum stimulated growth of MCF-7 cells significantly reversed
reversal of stimulated growth (in words) [6]: Neither EGF (1 ng/ml) serum nor non-serum stimulated growth of MDA-MB435 cells was reversed
concentration reversing stimulated growth back to control values ([7]; TGF (1 ng/ml) non-serum stimulated growth of MDA-MB 435 cells): 10 µM
concentration reversing stimulated growth back to control values ([7]; TGF (1 ng/ml) serum stimulated growth of MDA-MB 435 cells): 50 µM

O=C(/C=C/c1cccnc1)C12CC3CC(CC(C3)C1)C2 [Compound 47b]
CC50 [2]: 5 µM
% cell viability [3]: 124%

O=C(/C=C/c1ccncc1)C12CC3CC(CC(C3)C1)C2 [Compound 47c]
% cell viability [3]: 102%

Cc1cccc(/C=C/C(=O)C23CC4CC(CC(C4)C2)C3)n1 [Compound 47d]
% cell viability [3]: 94%

O=C(/C=C/c1ccnc2ccccc12)C12CC3CC(CC(C3)C1)C2 [Compound 47e]
CC50 [1]: 50 µM
LC50 increase over tamoxifen ([1]; MCF-7 cells, versus tamoxifen): 10 fold
% cell viability [3]: 98%

COc1cccc2c1C(=O)c1c(O)c3c(c(O)c1C2=O)C[C@@](O)(C(=O)CO)C[C@@H]3O[C@H]1C[C@H](N)[C@H](O)[C@H](C)O1 [Doxyrubicin]
CC50 [1, 9]: 500 µM

O=c1c(-c2ccc(O)cc2)coc2cc(O)cc(O)c12 [Genestein, Genistein]
CC50 ([2]; Homo sapiens, MDA-MB-435, read-out: LC50): 5000 µM
LC50 (in words) ([2]; MDA-MB435 cells, in the concentration range measured (1 mM to 1 nM)): no LC50 was obtained
IC50 [8]: 1 µM

CC/C(=C(\c1ccccc1)c1ccc(OCCN(C)C)cc1)c1ccccc1 [Tamoxifen]
CC50 [1, 9]: 500 µM
effect on cell viability (in words) ([2]; MDA-MB435 cells): ineffective at lower concentrations
